Data: patent US11040083B2, “Polypeptides comprising vinculin binding sites for the treatment of proliferation and/or adhesion related diseases” (PARIS SCIENCES ET LETTRES—QUARTIER LATIN, priority 2015, dated 2021)
No end group written: not given here.

How the values were obtained:
[1] = target: T1, talin H1-H4 (Homo sapiens, UniProt Q9Y490); assay: Isothermal titration calorimetry; type: binding; settings: for N (stoichiometry): ITC non-linear fit; for N (stoichiometry) / ΔG free enthalpy / ΔH enthalpy / −TΔS entropic contribution: 25° C.
T1 sequence (Q9Y490 482-636): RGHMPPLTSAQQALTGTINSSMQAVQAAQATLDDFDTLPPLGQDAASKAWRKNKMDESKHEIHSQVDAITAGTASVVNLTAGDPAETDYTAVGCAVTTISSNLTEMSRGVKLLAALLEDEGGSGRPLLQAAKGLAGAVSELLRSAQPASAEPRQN
Method: Vinculin, IpaA proteins and peptides were extensively dialyzed in binding buffer (25 mM Tris pH 7.4, 100 mM NaCl and 1 mM β-Mercaptoethanol). The final concentration of all proteins/peptides was measured using a BCA test (Thermo Scientific). Talin-IpaA binding was measured by microcalorimetry using an ITC200 calorimeter (MicroCal) at 25° C. 200 μL of 20-100 μM of talin H1-H4 protein was added to the cell and binding in the presence of different concentrations of IpaA VBS1, VBS2 or VBS3 peptides was measured. In other experiments, 200 μL of a 16 μM equimolar mix of A483:HVD1 was incubated for one hour at room temperature prior to addition to the cell. Binding to talin H1-H4 (100 μM) was measured. Typically, 20-40 injections of 2 μL of ligand were made with intervals of 320 seconds between each addition, with a reference power of 12 μcal/sec. Data were analyzed using the MicroCal software provided by manufacturer.

[2] = target: T1, talin H1-H4; assay: Native-PAGE gel shift; type: binding
Method: Talin H1-H4 and IpaA peptides/proteins were incubated in binding buffer for 1 hour at 4° C. After incubation, the protein/peptides were mixed in a 2× Native loading buffer (62.5 mM Tris pH 6.8, Glycerol 25%) and separated by Tris-Glycine Native-PAGE electrophoresis. Gels were stained using standard colloidal Coomassie stain.
Talin H1-H4 and IpaA peptides/proteins at different molar ratios were incubated in binding buffer (25 mM Tris pH 7.4, 100 mM NaCl and 1 mM β-Mercaptoethanol) for 1 hour at 4° C. After incubation, the protein/peptides were mixed in a 2× Native loading buffer (62.5 mM Tris pH 6.8, Glycerol 25%) and separated by Tris-Glycine Native-PAGE electrophoresis. The Native PAGE electrophoresis gels were stained using standard colloidal Coomassie stain.

[3] = Size exclusion chromatography, hydrodynamic radius; type: physicochemical
Method: The purified proteins HVD1, A483, A524 and Talin H1-H4 were used at an equimolar concentration of 20 μM and incubated at 4° C. for one hour in binding buffer. The protein mixtures (200 μL) were injected in a FPLC chromatography system (FPLC Pharmacia) at 16° C. in a Superdex 75 HR 10/30 column (GE Healthcare) previously equilibrated with 10 volumes of binding buffer. The SEC system was calibrated with a Low Molecular Weight Gel Filtration Kit (ref. 17-0442-01, GE Healthcare) and the hydrodynamic radius (Angstroms) of the reference proteins (BSA, OVA, ChyA and RibA) correlated with the elution volume (Ve) using an Euler exponential equation: Hydrodynamic radius (Ang)=210.46 e^−0.189 Ve (mL), with a correlation squared coefficient of R^2=0.9973. Fractions corresponding to elution volume 8-10 mLs were recovered, and analyzed by SDS-PAGE using 15% polyacrylamide gels.

[4] = test system: HeLa cells; assay: Immunofluorescence of V5-tagged IpaA derivatives and talin; type: cell-based; settings: V5 epitope and talin staining
Description: FIG. 8 is a set of photographs showing the interaction between IpaA VBS3 and talin (H1-H4). A, IpaA constructs used in this study. The VBSs are depicted as boxes in IpaA full length (IpaA-FL), with the residue number corresponding to the first residue of the corresponding VBS. The first and last IpaA residues are annotated for the IpaA truncated derivatives. V5: V5 epitope. B, HeLa cells were transfected with IpaA derivatives, fixed and processed for immunofluorescence staining of the V5 epitope and talin. Representative fluorescence images are shown, with a larger magnification of the inset boxed in the left panels. Scale bar=5 μm. C, Native PAGE analysis of IpaA VBSs and talin H1-H4 interaction. 1. Purified talin H1-H4 was incubated with the indicated IpaA VBS peptides and analyzed using 6-18% gradient native PAGE. The talin H1-H4: IpaA VBS molar ratio is indicated, with 1 corresponding to a final concentration of 25 μM. The migration of talin H1-H4 and of the talin H1-H4:IpaA VBS3 complex are indicated.

[5] = test system: melanocytes; assay: Time lapse cell migration; type: cell-based; settings: 6 movies per sample, preliminary

Molecule: CC[C@H](C)[C@H](N)C(=O)N[C@@H](Cc1ccc(O)cc1)C(=O)N[C@@H](CCCCN)C(=O)N[C@@H](C)C(=O)N[C@@H](C)C(=O)N[C@@H](CCCCN)C(=O)N[C@@H](CC(=O)O)C(=O)N[C@H](C(=O)N[C@H](C(=O)N[C@H](C(=O)N[C@@H](CO)C(=O)N[C@@H](CC(C)C)C(=O)N[C@@H](CO)C(=O)N[C@@H](CCCCN)C(=O)N[C@H](C(=O)N[C@@H](CC(C)C)C(=O)N[C@@H](CCCCN)C(=O)N[C@@H](CC(N)=O)C(=O)N[C@H](C(=O)N[C@@H](CC(N)=O)C(=O)N[C@@H](CCCCN)C(=O)N[C@@H](CC(=O)O)C(=O)O)[C@@H](C)CC)C(C)C)[C@@H](C)O)[C@@H](C)O)C(C)C [IpaA VBS1]
- N (stoichiometry) [1]: 1.22
- ΔG free enthalpy ([1]; ITC): -6.575 kcal/mol
- ΔH enthalpy ([1]; ITC): -4.104 kcal/mol
- −TΔS entropic contribution ([1]; ITC): -2.471 kcal/mol
- formation of a complex with talin H1-H4 [2]: did not induce the formation

Molecule: IYEKAKEVSSALSKVLSKI (IpaA VBS2; listed as Shigella flexneri) [purified synthetic IpaA VBS peptide]
- interaction with talin H1-H4 by ITC ([1]; ITC): did not show any interaction
- formation of a complex with talin H1-H4 [2]: did not induce the formation

Molecule: CC[C@H](C)[C@H](NC(=O)[C@H](CC(C)C)NC(=O)[C@H](CO)NC(=O)[C@@H](NC(=O)[C@H](CC(C)C)NC(=O)[C@H](CC(N)=O)NC(=O)[C@H](CO)NC(=O)[C@H](CC(C)C)NC(=O)[C@H](CO)NC(=O)[C@H](CC(N)=O)NC(=O)[C@@H](NC(=O)[C@@H](NC(=O)[C@H](CCCCN)NC(=O)[C@H](CCCCN)NC(=O)[C@H](CO)NC(=O)[C@H](C)NC(=O)[C@H](CCC(=O)O)NC(=O)[C@H](Cc1ccccc1)NC(=O)[C@@H](NC(=O)[C@@H](NC(=O)[C@H](CCC(=O)O)NC(=O)[C@H](CCCNC(=N)N)NC(=O)[C@@H](N)[C@@H](C)O)[C@@H](C)O)[C@@H](C)CC)C(C)C)[C@@H](C)O)[C@@H](C)CC)C(=O)NCC(=O)N[C@H](C(=O)O)[C@@H](C)O [IpaA VBS3]
- N (stoichiometry) [1]: 0.893
- ΔG free enthalpy ([1]; ITC): -9.219 kcal/mol
- ΔH enthalpy ([1]; ITC): -6.393 kcal/mol
- −TΔS entropic contribution ([1]; ITC): -2.826 kcal/mol
- ΔG free enthalpy ([1]; ITC, listed as IpaA VBS3/TBS): -9.07 ± 0.103 kcal/mol
- concentration at which the complex with talin H1-H4 / migration shift could be detected [2]: 25 µM

Molecule: YTKKELIECARRVSEKVSHVLAALQA [talin H46, reference compound]
- Kd [1]: 60 nM
- ΔH enthalpy ([1]; ITC): -16.97 kcal/mol
- −TΔS entropic contribution ([1]; ITC): +7200 cal/mol
- formation of a complex with talin H1-H4 [2]: formed a complex

B1: HVD1: vinculin derivative containing only amino acid residues 1 to 257 of HV (D1 domain) (protein, listed as Homo sapiens)
chain: MPVFHTRTIESILEPVAQQISHLVIMHEEGEVDGKAIPDLTAPVAAVQAAVSNLVRVGKETVQTTEDQILKRDMPPAFIKVENACTKLVQAAQMLQSDPYSVPARDYLIDGSRGILSGTSDLLLTFDEAEVRKIIRVCKGILEYLTVAEVVETMEDLVTYTKNLGPGMTKMAKMIDERQQELTHQEHRVMLVNSMNTVKELLPVLISAMKIFVTTKNSKNQGIEEALKNRNFTVEKMSAEINEIIRVLQLTSWDEDA
modifications: Vinculin domain D1 (HVD1)
- Radiusg (hydrodynamic radius of a globular protein with the same MW) [3]: 24.36 Ang
- Radiusm/Radiusg (RH/RG ratio) [3]: 1.16
- Radiusm (estimated hydrodynamic radius) ([3]; SEC Superdex 75, 20 μM equimolar): 28.25 Ang

B2: IpaA 7-422: V5-tagged IpaA truncated derivative in which the IpaA VBS3 was deleted (protein)
chain: TQAPTFLYKATSPSSTEYSELKSKISDIHSSQTSLKTPASVSEKENFATSFNQKCLDFLFSSSGKEDVLRSIYSNSMNAYAKSEILEFSNVLYSLVHQNGLNFENEKGLQKIVAQYSELIIKDKLSQDSAFGPWSAKNKKLHQLRQNIEHRLALLAQQHTSGEALSLGQKLLNTEVSSFIKNNILAELKLSNETVSSLKLDDLVDAQAKLAFDSLRNQRKNTIDSKGFGIGKLSRDLNTVAVFPELLRKVLNDILEDIKDSHPIQDGLPTPPEDMPDGGPTPGANEKTSQPVIHYHINNDNRTYDNRVFDNRVYDNSYHENPENDAQSPTSQTNDLLSRNGNSLLNPQRALVQKVTSVLPHSISDTVQTFANNSALEKVFNHTPDNSDGIGSDLLTTSSQERSANNSLSRGHRPLN
modifications: left off: small tags and cut ends
notes: V5-tagged IpaA truncated derivative in which the IpaA VBS3 was deleted
- localization relative to talin [4]: did not co-localize with talin

B3: GFP-A524 (protein)
chain: KSKDITKSTTEHRINNKLKVTDANIRNYVTETNADTIDKNHAIYEKAKEVSSALSKVLSKIDDTSAELLTDDISDLKNNNDITAENNNIYKAAKDVTTSLSKVLKNINKD
modifications: left off: large carriers
- effect on cell migration / motility [5]: did not drastically alter the motility

B4: IpaA 7-522: V5-tagged IpaA truncated derivative (protein)
chain: TQAPTFLYKATSPSSTEYSELKSKISDIHSSQTSLKTPASVSEKENFATSFNQKCLDFLFSSSGKEDVLRSIYSNSMNAYAKSEILEFSNVLYSLVHQNGLNFENEKGLQKIVAQYSELIIKDKLSQDSAFGPWSAKNKKLHQLRQNIEHRLALLAQQHTSGEALSLGQKLLNTEVSSFIKNNILAELKLSNETVSSLKLDDLVDAQAKLAFDSLRNQRKNTIDSKGFGIGKLSRDLNTVAVFPELLRKVLNDILEDIKDSHPIQDGLPTPPEDMPDGGPTPGANEKTSQPVIHYHINNDNRTYDNRVFDNRVYDNSYHENPENDAQSPTSQTNDLLSRNGNSLLNPQRALVQKVTSVLPHSISDTVQTFANNSALEKVFNHTPDNSDGIGSDLLTTSSQERSANNSLSRGHRPLNIQNSSTTPPLHPEGVTSSNDNSSDTTKSSASLSHRVASQINKFNSNTDSKVLQTDFLSRNGDTYLTRETIFEASKKVTNSLSNLISLIGTKSGTQERELQ
modifications: left off: small tags and cut ends
notes: V5-tagged IpaA truncated derivative
- localization relative to talin [4]: localized to focal adhesions and other talin-containing structures
